Data taken from ChEMBL document CHEMBL5370641, “Structure-Based Optimization and Biological Evaluation of Potent and Selective MMP-7 Inhibitors for Kidney Fibrosis” (J Med Chem, 2023).
pIC50: −log10 of the molar value. The source made the active and inactive calls. The calls are words filed in the database; no cut-off is given here. Numbered stars: 1 amine (or outer) side, 2 acyl side, 3 side chain; on linkers, the order of the positions; unused ones are H or OH. Square brackets hold non-standard residues; d marks the D form. Peptide text beside a SMILES is read from it. * marks the point of attachment. Benzenesulfonyl(4-Cl,3-CF3) = O=S(=O)(c1ccc(Cl)c(C(F)(F)F)c1)*; Ala(thiazol-2-yl) = N[C@@H](Cc1nccs1)C(=O)O; Ala(4-thiazolyl) = N[C@@H](Cc1cscn1)C(=O)O; Phe(3-I) = N[C@@H](Cc1cccc(I)c1)C(=O)O; Phe(4-I) = N[C@@H](Cc1ccc(I)cc1)C(=O)O; γGlu = O=C(O)[C@H](CCC(=O)[*:2])N[*:1]; Tle = CC(C)(C)[C@H](N)C(=O)O; β3hP = O=C(O)C[C@@H]1CCCN1

Columns and labels:
[1] = target: Matrix metalloproteinase-14 (Homo sapiens, UniProt P50281); experiment: Inhibition of recombinant human MMP14 using MOCAc-Lys-Pro-Leu-Gly-Leu-A2pr(Dnp)-Ala-Arg-NH2 as substrate preincubated with compound for 15 mins followed by substrate addition and measured after 1 hrs by fluorescence based analysis
Matrilysin = target: T1, Matrilysin (Homo sapiens, UniProt P09237); experiment: Inhibition of recombinant human MMP7 using MOCAc-Pro-Leu-Gly-Leu-A2pr-(Dnp)-Ala-Arg-NH2 as substrate preincubated with compound for 15 mins followed by substrate addition and measured after 2 hrs by fluorescence based analysis
T1 sequence (P09237 whole entry): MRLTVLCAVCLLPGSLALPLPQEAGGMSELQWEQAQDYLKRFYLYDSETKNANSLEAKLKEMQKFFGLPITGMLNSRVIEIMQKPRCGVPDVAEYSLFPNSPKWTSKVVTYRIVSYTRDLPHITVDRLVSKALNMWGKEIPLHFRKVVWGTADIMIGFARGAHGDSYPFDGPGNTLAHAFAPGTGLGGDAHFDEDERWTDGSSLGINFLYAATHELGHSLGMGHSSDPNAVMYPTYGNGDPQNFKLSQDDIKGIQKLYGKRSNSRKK

Mus musculus = experiment: Antifibrotic activity against unilateral ureteric obstruction induced C57BL/6J mouse model of renal fibrosis assessed as reduction in renal collagen at 0.1 mg/ml preadministered with compound via drinking water for 7 days followed by UUO surgery and measured after 7 days; type: functional, organism-based; settings: route po, time 14.0 day
[2] = target: Matrix metalloproteinase-9 (Homo sapiens, UniProt P14780); experiment: Inhibition of recombinant human MMP9 using MOCAc-Pro-Leu-Gly-Leu-A2pr-(Dnp)-Ala-Arg-NH2 as substrate preincubated with compound for 15 mins followed by substrate addition and measured after 1 hrs by fluorescence based analysis
Chain of Matrix metalloproteinase-9 (P14780 whole entry): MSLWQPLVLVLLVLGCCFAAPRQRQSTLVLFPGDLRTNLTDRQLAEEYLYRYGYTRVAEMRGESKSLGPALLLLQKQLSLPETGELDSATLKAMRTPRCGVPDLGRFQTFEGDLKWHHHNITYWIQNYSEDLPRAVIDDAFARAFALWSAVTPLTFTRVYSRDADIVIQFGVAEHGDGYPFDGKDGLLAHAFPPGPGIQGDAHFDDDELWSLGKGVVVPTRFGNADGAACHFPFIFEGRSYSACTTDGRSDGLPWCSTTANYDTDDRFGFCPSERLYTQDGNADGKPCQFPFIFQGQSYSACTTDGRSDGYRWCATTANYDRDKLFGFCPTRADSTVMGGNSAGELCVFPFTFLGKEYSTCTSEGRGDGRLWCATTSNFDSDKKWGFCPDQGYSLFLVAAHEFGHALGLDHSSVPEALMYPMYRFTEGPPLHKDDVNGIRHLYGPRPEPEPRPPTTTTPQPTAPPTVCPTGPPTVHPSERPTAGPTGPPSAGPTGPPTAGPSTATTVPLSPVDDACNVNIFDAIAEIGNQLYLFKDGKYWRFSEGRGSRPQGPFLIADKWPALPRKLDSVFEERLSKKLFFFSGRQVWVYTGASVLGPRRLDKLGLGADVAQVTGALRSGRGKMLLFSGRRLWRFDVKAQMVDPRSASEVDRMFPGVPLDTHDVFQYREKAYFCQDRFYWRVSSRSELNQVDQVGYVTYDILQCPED

Neutrophil collagenase = Neutrophil collagenase (Homo sapiens, UniProt P22894); experiment: Inhibition of recombinant human MMP8 using MOCAc-Pro-Leu-Gly-Leu-A2pr-(Dnp)-Ala-Arg-NH2 as substrate preincubated with compound for 15 mins followed by substrate addition and measured after 1 hrs by fluorescence based analysis
Chain of Neutrophil collagenase (P22894 whole entry): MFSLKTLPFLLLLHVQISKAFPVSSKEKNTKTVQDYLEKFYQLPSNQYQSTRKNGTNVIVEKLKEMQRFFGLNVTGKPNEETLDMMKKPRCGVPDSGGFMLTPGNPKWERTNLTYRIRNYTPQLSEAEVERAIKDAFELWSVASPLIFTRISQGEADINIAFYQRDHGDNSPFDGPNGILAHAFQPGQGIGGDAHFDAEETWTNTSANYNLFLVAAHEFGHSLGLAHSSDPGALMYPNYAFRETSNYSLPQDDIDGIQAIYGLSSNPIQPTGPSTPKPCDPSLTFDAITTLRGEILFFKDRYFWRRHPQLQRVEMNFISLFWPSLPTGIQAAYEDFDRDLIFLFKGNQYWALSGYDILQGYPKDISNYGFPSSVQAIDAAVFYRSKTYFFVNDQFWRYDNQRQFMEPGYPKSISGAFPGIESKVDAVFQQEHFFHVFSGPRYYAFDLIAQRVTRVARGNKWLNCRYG

Homo sapiens [3] = organism: Homo sapiens; experiment: Selectivity ratio of IC50 for inhibition of recombinant human MMP14 to IC50 for inhibition of recombinant human MMP7
Stromelysin-1 = Stromelysin-1 (Homo sapiens, UniProt P08254); experiment: Inhibition of recombinant human MMP3 using MOCAc-Arg-Pro-Lys-Pro-Val-Glu-Nva-Trp-Arg-Lys(Dnp)-NH2 as substrate preincubated with compound for 15 mins followed by substrate addition and measured after 1 hrs by fluorescence based analysis
Chain of Stromelysin-1 (P08254 whole entry): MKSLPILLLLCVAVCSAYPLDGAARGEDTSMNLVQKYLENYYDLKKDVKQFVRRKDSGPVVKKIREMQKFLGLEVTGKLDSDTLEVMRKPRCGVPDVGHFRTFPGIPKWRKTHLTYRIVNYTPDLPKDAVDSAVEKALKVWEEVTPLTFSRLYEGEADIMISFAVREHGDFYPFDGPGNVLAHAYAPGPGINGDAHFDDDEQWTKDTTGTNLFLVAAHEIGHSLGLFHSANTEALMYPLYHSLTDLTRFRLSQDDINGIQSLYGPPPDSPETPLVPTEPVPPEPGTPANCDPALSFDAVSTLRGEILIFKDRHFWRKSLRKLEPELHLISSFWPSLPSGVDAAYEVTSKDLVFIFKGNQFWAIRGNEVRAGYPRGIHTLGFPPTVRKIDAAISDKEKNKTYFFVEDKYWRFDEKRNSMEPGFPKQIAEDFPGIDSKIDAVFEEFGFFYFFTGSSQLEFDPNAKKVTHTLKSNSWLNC

Homo sapiens [4] = organism: Homo sapiens; experiment: Selectivity ratio of IC50 for inhibition of recombinant human MMP8 to IC50 for inhibition of recombinant human MMP7
[5] = target: Macrophage metalloelastase (Homo sapiens, UniProt P39900); experiment: Inhibition of recombinant human MMP12 using MOCAc-Pro-Leu-Gly-Leu-A2pr-(Dnp)-Ala-Arg-NH2 as substrate preincubated with compound for 15 mins followed by substrate addition and measured after 1 hrs by fluorescence based analysis
Chain of Macrophage metalloelastase (P39900 whole entry): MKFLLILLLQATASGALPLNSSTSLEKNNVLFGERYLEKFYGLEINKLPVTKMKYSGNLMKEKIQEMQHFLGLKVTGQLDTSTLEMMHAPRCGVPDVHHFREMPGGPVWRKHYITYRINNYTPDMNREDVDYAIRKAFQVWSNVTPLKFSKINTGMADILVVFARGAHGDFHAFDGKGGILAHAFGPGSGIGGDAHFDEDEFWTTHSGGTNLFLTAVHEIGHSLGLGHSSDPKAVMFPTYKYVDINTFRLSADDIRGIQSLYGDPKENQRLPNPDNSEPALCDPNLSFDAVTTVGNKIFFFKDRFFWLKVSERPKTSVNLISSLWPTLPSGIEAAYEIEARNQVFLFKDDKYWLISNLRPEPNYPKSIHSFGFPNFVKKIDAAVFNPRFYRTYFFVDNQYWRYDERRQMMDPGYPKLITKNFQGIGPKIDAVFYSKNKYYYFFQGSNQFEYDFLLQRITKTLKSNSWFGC

Homo sapiens [6] = organism: Homo sapiens; experiment: Selectivity ratio of IC50 for inhibition of recombinant human MMP12 to IC50 for inhibition of recombinant human MMP7
Homo sapiens [7] = organism: Homo sapiens; experiment: Selectivity ratio of IC50 for inhibition of recombinant human MMP3 to IC50 for inhibition of recombinant human MMP7
Interstitial collagenase = target: T2, Interstitial collagenase (Homo sapiens, UniProt P03956); experiment: Inhibition of recombinant human MMP1 using MOCAc-Lys-Pro-Leu-Gly-Leu-A2pr(Dnp)-Ala-Arg-NH2 as substrate preincubated with compound for 15 mins followed by substrate addition and measured after 1 hrs by fluorescence based analysis
T2 sequence (P03956 whole entry): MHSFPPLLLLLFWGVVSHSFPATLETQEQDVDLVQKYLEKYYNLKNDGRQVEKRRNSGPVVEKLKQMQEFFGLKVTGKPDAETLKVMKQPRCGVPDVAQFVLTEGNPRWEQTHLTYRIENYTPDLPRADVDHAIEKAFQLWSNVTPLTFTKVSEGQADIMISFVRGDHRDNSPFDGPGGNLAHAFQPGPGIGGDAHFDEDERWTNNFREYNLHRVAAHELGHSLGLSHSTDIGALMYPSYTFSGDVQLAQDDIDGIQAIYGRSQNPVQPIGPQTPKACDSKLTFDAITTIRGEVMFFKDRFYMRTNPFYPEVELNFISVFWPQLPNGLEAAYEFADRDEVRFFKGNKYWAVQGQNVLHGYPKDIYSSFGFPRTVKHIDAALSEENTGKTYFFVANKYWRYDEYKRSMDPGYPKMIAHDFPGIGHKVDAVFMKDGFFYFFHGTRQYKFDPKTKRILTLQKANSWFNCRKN

Homo sapiens [8] = organism: Homo sapiens; experiment: Selectivity ratio of IC50 for inhibition of recombinant human MMP9 to IC50 for inhibition of recombinant human MMP7
Homo sapiens [9] = organism: Homo sapiens; experiment: Selectivity ratio of IC50 for inhibition of recombinant human MMP1 to IC50 for inhibition of recombinant human MMP7
Collagenase 3 = Collagenase 3 (Homo sapiens, UniProt P45452); experiment: Inhibition of recombinant human MMP13 using MOCAc-Pro-Leu-Gly-Leu-A2pr-(Dnp)-Ala-Arg-NH2 as substrate preincubated with compound for 15 mins followed by substrate addition and measured after 1 hrs by fluorescence based analysis
Homo sapiens [10] = organism: Homo sapiens; experiment: Selectivity ratio of IC50 for inhibition of recombinant human MMP13 to IC50 for inhibition of recombinant human MMP7
[11] = target: 72 kDa type IV collagenase (Homo sapiens, UniProt P08253); experiment: Inhibition of recombinant human MMP2 using MOCAc-Pro-Leu-Gly-Leu-A2pr-(Dnp)-Ala-Arg-NH2 as substrate preincubated with compound for 15 mins followed by substrate addition and measured after 1 hrs by fluorescence based analysis
Chain of 72 kDa type IV collagenase (P08253 whole entry): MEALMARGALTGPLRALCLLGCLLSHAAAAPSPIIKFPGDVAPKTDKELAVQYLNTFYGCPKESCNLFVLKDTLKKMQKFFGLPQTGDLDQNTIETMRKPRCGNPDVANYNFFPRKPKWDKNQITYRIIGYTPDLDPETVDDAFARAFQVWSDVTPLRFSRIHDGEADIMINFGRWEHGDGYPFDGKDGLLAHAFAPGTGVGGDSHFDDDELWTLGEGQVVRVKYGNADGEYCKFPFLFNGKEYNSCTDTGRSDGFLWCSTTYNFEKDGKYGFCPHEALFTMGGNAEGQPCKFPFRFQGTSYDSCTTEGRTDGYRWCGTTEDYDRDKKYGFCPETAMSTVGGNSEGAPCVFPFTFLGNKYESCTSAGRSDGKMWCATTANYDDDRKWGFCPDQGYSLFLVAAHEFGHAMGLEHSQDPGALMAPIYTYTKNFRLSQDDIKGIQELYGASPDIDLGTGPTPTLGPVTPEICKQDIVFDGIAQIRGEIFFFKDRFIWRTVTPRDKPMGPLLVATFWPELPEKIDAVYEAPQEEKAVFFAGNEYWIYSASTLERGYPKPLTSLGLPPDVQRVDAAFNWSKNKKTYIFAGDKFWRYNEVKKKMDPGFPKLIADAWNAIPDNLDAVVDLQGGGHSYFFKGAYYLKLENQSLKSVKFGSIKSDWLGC

Homo sapiens [12] = organism: Homo sapiens; experiment: Selectivity ratio of IC50 for inhibition of recombinant human MMP2 to IC50 for inhibition of recombinant human MMP7

Compound	pIC50 [1]	pIC50 (Matrilysin)	further results
CC(C)c1cn(C[C@H](NC(=O)CNC(=O)CC[C@H](NS(=O)(=O)c2ccc(Cl)c(C(F)(F)F)c2)C(=O)O)C(=O)N[C@H](C(=O)N2CCC[C@H]2CC(N)=O)C(C)(C)C)nn1	4.80	7.00	
CC(C)(C)[C@H](NC(=O)[C@H](Cn1ccnn1)NC(=O)CNC(=O)CC[C@H](NS(=O)(=O)c1ccc(Cl)c(C(F)(F)F)c1)C(=O)O)C(=O)N1CCC[C@H]1CC(N)=O	5.08	7.49	
COc1ccc(C[C@H](NC(=O)CNC(=O)CC[C@H](NS(=O)(=O)c2ccc(Cl)c(C(F)(F)F)c2)C(=O)O)C(=O)N[C@H](C(=O)N2CCC[C@H]2CC(N)=O)C(C)(C)C)cc1 ({Benzenesulfonyl(4-Cl,3-CF3)-γGlu}-GY(Me)[Tle][β3hP]-NH2)	5.70	7.85	
CC(C)Cn1cc(-c2ccc(C[C@H](NC(=O)CNC(=O)CC[C@H](NS(=O)(=O)c3ccc(Cl)c(C(F)(F)F)c3)C(=O)O)C(=O)N[C@H](C(=O)N3CCC[C@H]3CC(N)=O)C(C)(C)C)cc2)cn1	4.34	7.64	
CC(C)(C)[C@H](NC(=O)[C@H](Cc1nccs1)NC(=O)CNC(=O)CC[C@H](NS(=O)(=O)c1ccc(Cl)c(C(F)(F)F)c1)C(=O)O)C(=O)N1CCC[C@H]1CC(N)=O ({Benzenesulfonyl(4-Cl,3-CF3)-γGlu}-G[Ala(thiazol-2-yl)][Tle][β3hP]-NH2)	5.42	8.02	
CC(C)(C)[C@H](NC(=O)[C@H](Cc1ccc(O)cc1)NC(=O)CNC(=O)CC[C@H](NS(=O)(=O)c1ccc(Cl)c(C(F)(F)F)c1)C(=O)O)C(=O)N1CCC[C@H]1CC(N)=O ({Benzenesulfonyl(4-Cl,3-CF3)-γGlu}-GY[Tle][β3hP]-NH2)	5.57	8.02	
CC(C)(C)[C@H](NC(=O)[C@H](Cc1ccc(I)cc1)NC(=O)CNC(=O)CC[C@H](NS(=O)(=O)c1ccc(Cl)c(C(F)(F)F)c1)C(=O)O)C(=O)N1CCC[C@H]1CC(N)=O ({Benzenesulfonyl(4-Cl,3-CF3)-γGlu}-G[Phe(4-I)][Tle][β3hP]-NH2)	6.16	8.08	
CCCCc1nc(Cl)c(CO)n1Cc1ccc(-c2ccccc2-c2nnn[nH]2)cc1			Activity (Mus musculus): Active
CC(C)C[C@H](NC(=O)CNC(=O)CC[C@H](NS(=O)(=O)c1ccc(Cl)c(C(F)(F)F)c1)C(=O)O)C(=O)N[C@H](C(=O)N1CCC[C@H]1CC(N)=O)C(C)(C)C ({Benzenesulfonyl(4-Cl,3-CF3)-γGlu}-GL[Tle][β3hP]-NH2)	6.62	8.11	pIC50 [2]: < 4.00; pIC50 (Neutrophil collagenase): 4.26; Ratio IC50 (Homo sapiens [3]): 31; pIC50 (Stromelysin-1): < 4.00; Ratio IC50 (Homo sapiens [4]): 7100; pIC50 [5]: 5.54; Ratio IC50 (Homo sapiens [6]): 380; Ratio IC50 (Homo sapiens [7]): > 13000; pIC50 (Interstitial collagenase): 4.04; Ratio IC50 (Homo sapiens [8]): > 13000; Ratio IC50 (Homo sapiens [9]): 12000; pIC50 (Collagenase 3): < 4.00; Ratio IC50 (Homo sapiens [10]): > 13000; pIC50 [11]: 5.07; Ratio IC50 (Homo sapiens [12]): 1100
CC(C)(C)[C@H](NC(=O)[C@H](Cc1cccc(I)c1)NC(=O)CNC(=O)CC[C@H](NS(=O)(=O)c1ccc(Cl)c(C(F)(F)F)c1)C(=O)O)C(=O)N1CCC[C@H]1CC(N)=O ({Benzenesulfonyl(4-Cl,3-CF3)-γGlu}-G[Phe(3-I)][Tle][β3hP]-NH2)	5.51	7.92	
CC(C)(C)[C@H](NC(=O)[C@H](Cc1cscn1)NC(=O)CNC(=O)CC[C@H](NS(=O)(=O)c1ccc(Cl)c(C(F)(F)F)c1)C(=O)O)C(=O)N1CCC[C@H]1CC(N)=O ({Benzenesulfonyl(4-Cl,3-CF3)-γGlu}-G[Ala(4-thiazolyl)][Tle][β3hP]-NH2)	6.03	8.42	
